Experimental data as given in patent publication US20190059368A1, “3,5-DIMETHOXYSTILBENE ANALOGS AND USES THEREOF” (The United States of America, as represented by the …, priority 2017, published 2019).
Converted amounts (≈) assume the structure as drawn.

Key:
[1] = tested on: Cryptococcus neoformans ATCC 90113; assay: Antimicrobial microplate assay (modified CLSI); assay type: cell-based; conditions: Cr. neoformans
Description: All organisms were obtained from the American Type Culture Collection (ATCC; Manassas, Va., USA) and included the fungi Cryptococcus neoformans ATCC 90113 and the bacteria Staphylococcus aureus ATCC 29213, methicillin-resistant S. aureus ATCC 33591 (MRSA), and Mycobacterium intracellulare ATCC 23068. All organisms were tested using modified versions of the CLSI (formerly NCCLS) methods. For all organisms excluding My. intracellulare, optical density was used to monitor growth. Medium supplemented with 5% AlamarBlue® (BioSource International, Camarillo, Calif., USA) was utilized for growth detection of My. intracellulare. Samples (dissolved in DMSO) were serially diluted in 20% DMSO/saline and transferred (10 μl) in duplicate to 96-well flat-bottom microplates. Inocula were prepared by correcting the OD630 of microbe suspensions in Sabouraud Dextrose for Cr. neoformans, cation-adjusted Mueller-Hinton (Difco) at pH 7.3 for Staphylococcus spp., and 5% AlamarBlue® (BioSource International) in Middlebrook 7H9 broth with OADC enrichment, pH=7.0 for My. intracellulare, to afford an assay volume of 200 μl and final target inocula of: Cr. neoformans.: b 1.5×10^3, My. intracellulare: 2.0×10^6, and Staphylococcus spp.,: 5.0×10^5 CFU/ml. Final sample test concentrations were 1/100th the DMSO stock concentration. Drug controls (Ciprofloxacin (ICN Biomedicals, Ohio, USA) for bacteria and Amphotericin B (ICN Biomedicals) for fungi) were included in each assay. All organisms were read at either 530 nm using the Biotek Powerwave XS plate reader (Bio-Tek Instruments, VT) or 544ex1590em (My. intracellulare) using the Polarstar Galaxy Plate Reader (BMG LabTechnologies, Germany) before and after incubation: Staphylococcus spp. at 35° C. for 16-20 h, Cr. neoformans at 35° C. for 70-74 h, and My. intracellulare at 37° C. and 10% CO2 for 70-74 h. IC50 Values (concentrations that afford 50% inhibition relative to controls) werecalculated using XLfit 4.2 software (IDBS, Alameda, Calif.) using fit model 201.

[2] = tested on: C. fragariae; assay: Direct bioautography, antifungal; assay type: cell-based, Colletotrichum fragariae; conditions: 2 mM, 4 μl spotted (2 μl of the positive controls), average of 2 assays; for zone of inhibition at 2000 µM: Colletotrichum fragariae, read-out: zones of inhibition
Description: (§1) The analogs were tested for activity against Colletotrichum acutatum SIMMONDS, C. fragariae BROOKS, and C. gloeosporioides (PENZ) PENZ & SACC. in Penz., using a direct bioautography method as previously described by Tabanca et al. (Nat. Prod. Commun. 2008, 3, 1073) and Wang, et al. (J. Agric. Food Chem. 2013, 61, 4551). Technical grade commercial fungicide standards benomyl, cyprodinil, azoxystrobin, and captan were used at 0.9-1.61 μg/μl concentrations in 95% EtOH. After sample application, each TLC plate was subsequently sprayed with a spore suspension (3.0×10^5 spores/ml) of the fungus of interest and incubated in a moisture chamber for 4 days at 26° C. with a 12 hour photoperiod. Clear zones of fungal growth inhibition on the TLC plate indicated the presence of antifungal constituents in each extract or pure compound. The test compounds were prepared at 2 mM soln. in 95% EtOH, and 4 μl were spotted on the plates (2 μl of the positive controls).

[3] = tested on: C. gloeosporioides; assay: Direct bioautography, antifungal; assay type: cell-based, Colletotrichum gloeosporioides; conditions: 2 mM, 4 μl spotted (2 μl of the positive controls), average of 2 assays; for zone of inhibition at 2000 µM: Colletotrichum gloeosporioides, read-out: zones of inhibition
Description: as §1

[4] = tested on: Colletotrichum acutatum; assay: Direct bioautography, antifungal; assay type: cell-based; conditions: 2 mM, 4 μl spotted (2 μl of the positive controls), average of 2 assays; for zone of inhibition at 2000 µM: Colletotrichum acutatum, read-out: zones of inhibition
Description: as §1

[5] = tested on: Meloidogyne incognita second-stage juveniles (J2); assay: M. incognita assay with previously hatched J2 immersed in test solutions; conditions: in vivo
Description: Two types of assays were used to investigate activity against M. incognita: i) eggs were immersed in solutions of the test compounds, and ii) second-stage juveniles (J2) previously hatched from eggs were immersed in the test solutions. These assays were conducted with procedures similar to those in Meyer, et al. (J. Nematol. 2006, 38, 333). M. incognita race 1 (originally isolated in 2013 from a field in Maryland) was grown in the greenhouse on pepper (Capsicum annuum L.) cultivar PA-136. Egg masses were hand-picked from plant roots, rinsed three times with sterile distilled H2O, and agitated in 0.6% NaClO for 3.5 minutes to separate and surface-sterilize eggs. The eggs were rinsed in sterile distilled H2O and stored overnight at 4° C. before use in egg immersion assays. To collect J2 for direct immersion into the test compounds, sterilized eggs were placed into a hatching chamber made with a Spectra/Mesh Nylon Filter (openings 25 μm in diameter; Spectrum Laboratories Inc., Rancho Dominguez, Calif., USA) in an autoclaved dish. J2 that passed through the filter within 3 days were used immediately for assays.
The assays were conducted in 96-well polystyrene plates. For the assays with immersed eggs, each well received approximately 50 eggs in 35 μl of sterile deionized water (SDW). For assays with previously hatched J2, a suspension of approximately 50 J2 in 35 μl of SDW was placed into each well. Each well then received 165 μl of treatment or control. The solvent used to dissolve the test chemicals was a 1:1:1 mixture referred to herein as CTD: equal parts Cremophor® EL Castor Oil (BASF Corporation, Vandalia, Ill., USA), Tween 80® (Sigma-Aldrich, St. Louis, Mo., USA), and DMSO (Sigma-Aldrich). A high and low rate of each compound was tested. After addition to the nematode suspensions in the wells, the low and high rates were 83.3 and 166.7 μg/ml of each test compound, respectively, dissolved in 0.5% and 1.0% of each of the three combined solvents. Controls were CTD equivalent to the low and high rates, and SDW. Because of the large number of treatments, the test compounds were divided into two groups for the egg immersion assays. The compounds tested in the egg immersion Assay 1 were 3, 6a, 6e, 6f, 6g, 6n, 7a, 7c, 7e, 7f, 7n, 11, 12, 16, and 17. The compounds tested in the egg immersion Assay 2 were 6b, 6h, 6i, 6j, 6k, 6l , 7b, 7g, 7h, 7i, 7j, 7k, 7l, and 7m (data not shown). Test compounds used for assays with previously hatched J2 were selected based on results with the egg assays. […]
Each polystyrene culture plate was covered with a plastic adhesive sheet (Excel Scientific, Inc., Victorville, Calif., USA) and incubated at 25° C. […] In egg immersion assays, total numbers of hatched J2, and numbers of mobile and immobile J2, were counted after 2 and 7 days incubation in the test compounds. In the first assay with previously hatched J2, the numbers of mobile and immobile J2 were counted after 1 and 2 days incubation, the treatments removed and replaced with a SDW rinse, and 2 days later the mobile vs. immobile J2 counted again. […]
Data from the M. incognita assays were analyzed with the statistical package JMP 11.2.0 (SAS Institute, Cary, N.C., USA). Differences among numbers of hatched J2 in each treatment, and among percentage of mobile J2 per treatment (number mobile J2/total J2×100), were determined by the ANOVA, and means were compared using Tukey Kramer's adjustment for multiple comparisons (P<0.05). […]

| Structure (SMILES) | zone of inhibition at 2000 µM [2] [mm] | zone of inhibition at 2000 µM [3] [mm] | zone of inhibition at 2000 µM [4] [mm] | also measured |
| --- | --- | --- | --- | --- |
| C[C@@H]1[C@H](O)[C@@H](C)/C=C/C=C/C=C/C=C/C=C/C=C/C=C/[C@H](O[C@@H]2O[C@H](C)[C@@H](O)[C@H](N)[C@@H]2O)C[C@@H]2O[C@](O)(C[C@@H](O)C[C@@H](O)[C@H](O)CC[C@@H](O)C[C@@H](O)CC(=O)O[C@H]1C)C[C@H](O)[C@H]2C(=O)O [Amphotericin B, reference compound] |  |  |  | IC50 [1]: 698 nM; MIC [1]: 1.353 µM (≈ 1.25 µg/mL) |
| CO/C=C(/C(=O)OC)c1ccccc1Oc1cc(Oc2ccccc2C#N)ncn1 [Azoxystrobin, azoxystrobin] |  |  |  | zones of inhibition [2]: 17.5 mm; zones of inhibition [3]: 17.5 mm; zones of inhibition [4]: 15 mm |
| CCCCNC(=O)n1c(NC(=O)OC)nc2ccccc21 [Benomyl, benomyl] | 20 | 20 | 17 |  |
| O=C1C2CC=CCC2C(=O)N1SC(Cl)(Cl)Cl (stereo not drawn) [Captan, captan] | 18.5 | 18.5 | 11.5 |  |
| COc1cccc(/C=C/c2cc(OC)c(C)c(OC)c2)c1 [Compound 6b, (E)-1,3-dimethoxy-5-(3-methoxystyryl)-2-methylbenzene] |  |  |  | effect on mobility of J2 previously hatched in water and immersed directly (in words) [5]: only 6g and 7k had an effect on J2 mobility |
